Measurements from patent US12433901B2, “Compounds and methods for prevention and treatment of coronavirus infections” (ARJIL BIOTECH HOLDING COMPANY LIMITED, priority 2020, dated 2025).
Values joined by “and” are separate entries in the source; they are usually repeats but may differ in a detail not shown here. Identical values can stand only once.

Biological target: SARS-CoV-2 3CLpro (Severe acute respiratory syndrome coronavirus 2, UniProt P0DTD1)
Assay: ED-FRET protease assay with SARS-CoV-2 3CLpro (DABCYL-[…]-EDANS IQF peptide substrate)
Type: biochemical
Conditions: for inhibitory effect on peptide-cleaving activity of SARS-CoV-2 3CLpro (in words): compound 20 μM, FIG. 1; for IC50: IC50, relative 3CLpro activity
[1] = 0.125 μM SARS-CoV-2 3CLpro and 1.25 μM IQF peptide substrate (0.125p/1.25FP)

| SMILES | inhibitory effect on peptide-cleaving activity of SARS-CoV-2 3CLpro (in words) | IC50 [1] [µM] | IC50 (0.25 μM SARS-CoV-2 3CLpro and 2.5 μM IQF peptide substrate) [µM] | IC50 (0.5 μM SARS-CoV-2 3CLpro and 5 μM IQF peptide substrate (0.5p/5FP)) | inhibition at 20 µM (read-out: SARS-CoV-2 3CLpro inhibition) [%] |
| --- | --- | --- | --- | --- | --- |
| C=C(CC[C@@H](C)[C@H]1CC[C@H]2C3=C(C(=O)C[C@]12C)[C@@]1(C)CC[C@@H](O)[C@](C)(O)[C@@H]1C[C@@H]3O)[C@@H](C)C(=O)O (stereo in doubt) [AR101 DS1] | inhibitory effect | – | – | – | – |
| C=C1C(=O)O[C@H]2/C=C(\C)CC3C=C(CC/C=C(\C)CC[C@H]12)C(=O)O3 (stereo partly drawn) [AR100 DS1] | inhibitory effect | 21.3 | – | – | – |
| C=C(CC[C@@H](C(=O)O)[C@H]1C[C@H](OC(C)=O)[C@@]2(C)C3=C(CC[C@]12C)[C@@]1(C)CC[C@H](O)C(C)(C)[C@@H]1CC3)C(C)C [AR101 DS3] | utmost inhibitory effect | 11.7 | 11.1 | 14.6 µM and 11.1 µM | ~50 |
| C=C(CC[C@@H](C(=O)O)[C@H]1CC[C@@]2(C)C3=CC[C@H]4C(C)(C)[C@@H](O)CC[C@]4(C)C3=CC[C@]12C)C(C)C [AR101 DS4] | inhibitory effect | – | – | – | – |
